Biological target: T1, mitochondrial respiratory chain complex III (CxIII, coenzyme Q-cytochrome c oxidoreductase) (Bos taurus, UniProt P00157+P13272)
T1 construct: gene MT-CYB; native complex in mitochondria isolated from bovine heart
Assay: spectrophotometric initial rates of cytochrome c reduction with graded decylubiquinol in isolated mitochondria; reciprocal and Dixon plots
Type: biochemical
Excerpt: spectrophotometric initial rates of cytochrome c reduction with graded decylubiquinol in isolated mitochondria; reciprocal and Dixon plots on mitochondrial respiratory chain complex III (CxIII, coenzyme Q-cytochrome c oxidoreductase) | indicate a competitive modality of inhibition.

How did the Ki turn out when `C[C@]12CC[C@H]3[C@@H](CCC4=CC(=O)CC[C@@H]43)[C@@H]1CC[C@@H]2O` [ND, nandrolone] was run?
The Ki was about 300 µM.

Source: paper PMC7010785, “Nandrolone induces a stem cell-like phenotype in human hepatocarcinoma-derived cell line inhibiting mitochondrial respiratory activity” (Scientific Reports, 2020)
